Reference: ChEMBL document CHEMBL4002577, “Phenylthiazole antibiotics: A metabolism-guided approach to overcome short duration of action” (Eur J Med Chem, 2017)
Values after ≈ are worked out from the molar mass of the structure shown.

What was measured:
Staphylococcus aureus [1] = assay: Bactericidal activity against methicillin/ciprofloxacin/gentamicin/clindamycin-resistant Staphylococcus aureus USA200 NRS383 clinical isolate after 24 hrs; assay type: functional; conditions: for MBC: USA200 NRS383, 24 h
Staphylococcus aureus [2] = assay: Antibacterial activity against methicillin-resistant Staphylococcus aureus 2658 RCMB after 18 to 20 hrs by broth microdilution method; assay type: functional
Staphylococcus aureus [3] = assay: Antibacterial activity against methicillin/ciprofloxacin/gentamicin/clindamycin-resistant Staphylococcus aureus USA200 NRS383 clinical isolate after 18 to 20 hrs by broth microdilution method; assay type: functional
Staphylococcus aureus [4] = assay: Antibacterial activity against vancomycin-resistant Staphylococcus aureus VRSA4 clinical isolate after 18 to 20 hrs by broth microdilution method; assay type: functional
Staphylococcus aureus [5] = assay: Bactericidal activity against vancomycin-resistant Staphylococcus aureus VRSA10 clinical isolate after 24 hrs; assay type: functional; conditions: VRSA10, 24 h
HaCaT [6] = assay: Cytotoxicity against human HaCaT cells assessed as decrease in cell viability up to 16 ug/ml after 2 hrs by MTS assay; assay type: cell-based
Staphylococcus aureus [7] = assay: Antibacterial activity against methicillin/erythromycin/tetracycline-resistant Staphylococcus aureus USA300 NRS384 clinical isolate after 18 to 20 hrs by broth microdilution method; assay type: functional
Staphylococcus aureus [8] = assay: Bactericidal activity against methicillin-resistant Staphylococcus aureus USA400 NRS123 clinical isolate after 24 hrs; assay type: functional; conditions: for MBC: USA400 NRS123, 24 h
Staphylococcus aureus [9] = assay: Antibacterial activity against vancomycin-resistant Staphylococcus aureus VRSA10 clinical isolate after 18 to 20 hrs by broth microdilution method; assay type: functional
Staphylococcus aureus [10] = assay: Bactericidal activity against vancomycin-resistant Staphylococcus aureus VRSA4 clinical isolate after 24 hrs; assay type: functional; conditions: VRSA4, 24 h
Staphylococcus aureus [11] = assay: Antibacterial activity against mupirocin/rifampicin-resistant Staphylococcus aureus RN4220 NRS107 clinical isolate after 18 to 20 hrs by broth microdilution method; assay type: functional
Staphylococcus aureus [12] = assay: Bactericidal activity against mupirocin/rifampicin-resistant Staphylococcus aureus RN4220 NRS107 clinical isolate after 24 hrs; assay type: functional; conditions: RN4220 NRS107, 24 h
Staphylococcus aureus [13] = assay: Antibacterial activity against methicillin-resistant Staphylococcus aureus USA400 NRS123 clinical isolate after 18 to 20 hrs by broth microdilution method; assay type: functional
Staphylococcus aureus [14] = assay: Bactericidal activity against methicillin/erythromycin/tetracycline-resistant Staphylococcus aureus USA300 NRS384 clinical isolate after 24 hrs; assay type: functional; conditions: for MBC: USA300 NRS384, 24 h
Staphylococcus aureus [15] = assay: Bactericidal activity against methicillin/ciprofloxacin/clindamycin-resistant Staphylococcus aureus USA100 NRS382 clinical isolate after 24 hrs; assay type: functional; conditions: for MBC: USA100 NRS382, 24 h
Staphylococcus aureus [16] = assay: Antibacterial activity against methicillin/ciprofloxacin/clindamycin-resistant Staphylococcus aureus USA100 NRS382 clinical isolate after 18 to 20 hrs by broth microdilution method; assay type: functional
HaCaT [17] = assay: Cytotoxicity against human HaCaT cells assessed as decrease in cell viability up to 32 ug/ml after 2 hrs by MTS assay; assay type: cell-based
[18] = Half life in human liver microsomes after 10 to 60 mins in presence of NADPH by LC/MS/MS analysis; assay type: ADME, microsome
[19] = Intrinsic clearance in human liver microsomes after 10 to 60 mins in presence of NADPH by LC/MS/MS analysis; assay type: ADME, microsome; conditions: read-out: CLH
[20] = Half life in human liver microsomes after 10 to 60 mins in absence of NADPH by LC/MS/MS analysis; assay type: ADME, microsome
[21] = Intrinsic clearance in human liver microsomes after 10 to 60 mins in absence of NADPH by LC/MS/MS analysis; assay type: ADME, microsome; conditions: read-out: CLH
HaCaT [22] = assay: Cytotoxicity against human HaCaT cells assessed as decrease in cell viability at 64 ug/ml after 2 hrs by MTS assay; assay type: cell-based
Staphylococcus aureus [23] = assay: Bactericidal activity against methicillin-resistant Staphylococcus aureus USA400 NRS123 clinical isolate assessed as time required to reduce 3 log10CFU of bacterial load at 4 times MIC by time kill assay; assay type: functional

With CCCCCOc1ccc(-c2nc(C)c(/C(C)=N/NC(=N)N)s2)cc1 the MBC (Staphylococcus aureus [1]) was > 64 µg/mL, the MIC (Staphylococcus aureus [2]) was 1.95 µg/mL (≈ 5.42 µM) and the MIC (Staphylococcus aureus [3]) was 64 µg/mL (≈ 178 µM).
In the case of C/C(=N\NC(=N)N)c1sc(-c2ccc(OC3CCCC3)cc2)nc1C, the MIC (Staphylococcus aureus [4]) is reported as 8 µg/mL (≈ 22.4 µM), the MBC (Staphylococcus aureus [5]) is reported as 8 µg/mL (≈ 22.4 µM) and the Activity (HaCaT [6]) is reported as “Non-Toxic”. For the same compound, the Activity (Staphylococcus aureus [1]) was “Dose-dependent effect”, the MBC (Staphylococcus aureus [1]) was 16 µg/mL (≈ 44.8 µM) and the MIC (Staphylococcus aureus [7]) was 8 µg/mL (≈ 22.4 µM). For the same compound, the Activity (Staphylococcus aureus [8]) was “Dose-dependent effect”, the MBC (Staphylococcus aureus [8]) was 32 µg/mL (≈ 89.5 µM) and the MIC (Staphylococcus aureus [2]) was 15.6 µg/mL (≈ 43.7 µM). The MIC (Staphylococcus aureus [9]) was 8 µg/mL (≈ 22.4 µM), the MBC (Staphylococcus aureus [10]) was 8 µg/mL (≈ 22.4 µM) and the MIC (Staphylococcus aureus [3]) was 2 µg/mL (≈ 5.59 µM). It also gave an MIC (Staphylococcus aureus [11]) of 8 µg/mL (≈ 22.4 µM), an MBC (Staphylococcus aureus [12]) of 8 µg/mL (≈ 22.4 µM) and an MIC (Staphylococcus aureus [13]) of 8 µg/mL (≈ 22.4 µM). For the same compound, the Activity (Staphylococcus aureus [14]) was “Dose-dependent effect”, the MBC (Staphylococcus aureus [14]) was 8 µg/mL (≈ 22.4 µM) and the Activity (Staphylococcus aureus [15]) was “Dose-dependent effect”. The MBC (Staphylococcus aureus [15]) was 4 µg/mL (≈ 11.2 µM) and the MIC (Staphylococcus aureus [16]) was 2 µg/mL (≈ 5.59 µM).
C/C(=N\NC(=N)N)c1sc(-c2ccc(OCCCC(C)C)cc2)nc1C showed an MIC (Staphylococcus aureus [4]) of 16 µg/mL (≈ 42.8 µM), an MBC (Staphylococcus aureus [5]) of 16 µg/mL (≈ 42.8 µM) and an MBC (Staphylococcus aureus [1]) of 16 µg/mL (≈ 42.8 µM). For the same compound, the MIC (Staphylococcus aureus [7]) was 16 µg/mL (≈ 42.8 µM), the MBC (Staphylococcus aureus [8]) was 32 µg/mL (≈ 85.7 µM) and the MIC (Staphylococcus aureus [2]) was 15.6 µg/mL (≈ 41.8 µM). For the same compound, the MIC (Staphylococcus aureus [9]) was 16 µg/mL (≈ 42.8 µM), the MBC (Staphylococcus aureus [10]) was 16 µg/mL (≈ 42.8 µM) and the MIC (Staphylococcus aureus [3]) was 4 µg/mL (≈ 10.7 µM). It also gave an MIC (Staphylococcus aureus [11]) of 16 µg/mL (≈ 42.8 µM), an MBC (Staphylococcus aureus [12]) of 16 µg/mL (≈ 42.8 µM) and an MIC (Staphylococcus aureus [13]) of 16 µg/mL (≈ 42.8 µM). It also gave an MBC (Staphylococcus aureus [14]) of 32 µg/mL (≈ 85.7 µM), an MBC (Staphylococcus aureus [15]) of 2 µg/mL (≈ 5.35 µM) and an MIC (Staphylococcus aureus [16]) of 2 µg/mL (≈ 5.35 µM).
For C/C(=N\NC(=N)N)c1sc(-c2ccc(OCC(C)C)cc2)nc1C, the MIC (Staphylococcus aureus [4]) was 16 µg/mL (≈ 46.3 µM), the MBC (Staphylococcus aureus [5]) was 32 µg/mL (≈ 92.6 µM) and the MBC (Staphylococcus aureus [1]) was 8 µg/mL (≈ 23.2 µM). For the same compound, the MIC (Staphylococcus aureus [7]) was 16 µg/mL (≈ 46.3 µM), the MBC (Staphylococcus aureus [8]) was > 32 µg/mL and the MIC (Staphylococcus aureus [2]) was 15.6 µg/mL (≈ 45.2 µM). The MIC (Staphylococcus aureus [9]) was 16 µg/mL (≈ 46.3 µM), the MBC (Staphylococcus aureus [10]) was 32 µg/mL (≈ 92.6 µM) and the MIC (Staphylococcus aureus [3]) was 8 µg/mL (≈ 23.2 µM). The MIC (Staphylococcus aureus [11]) was 32 µg/mL (≈ 92.6 µM), the MBC (Staphylococcus aureus [12]) was 32 µg/mL (≈ 92.6 µM) and the MIC (Staphylococcus aureus [13]) was 16 µg/mL (≈ 46.3 µM). The MBC (Staphylococcus aureus [14]) was 32 µg/mL (≈ 92.6 µM), the MBC (Staphylococcus aureus [15]) was 16 µg/mL (≈ 46.3 µM) and the MIC (Staphylococcus aureus [16]) was 8 µg/mL (≈ 23.2 µM).
With CCOc1ccc(-c2nc(C)c(/C(C)=N/NC(=N)N)s2)cc1 the MIC (Staphylococcus aureus [2]) was > 30 µg/mL.
For CCCCCCOc1ccc(-c2nc(C)c(/C(C)=N/NC(=N)N)s2)cc1, the Activity (HaCaT [17]) was “Non-Toxic”, the MIC (Staphylococcus aureus [4]) was 4 µg/mL (≈ 10.7 µM) and the MBC (Staphylococcus aureus [5]) was 4 µg/mL (≈ 10.7 µM). The half-life [18] was > 4 h, the microsomal CLint [19] was < 9.6 µL/min/mg and the half-life [20] was > 4 h. The MBC (Staphylococcus aureus [1]) was 2 µg/mL (≈ 5.35 µM), the microsomal CLint [21] was < 9.6 µL/min/mg and the MIC (Staphylococcus aureus [7]) was 4 µg/mL (≈ 10.7 µM). The MBC (Staphylococcus aureus [8]) was 16 µg/mL (≈ 42.8 µM), the Activity (HaCaT [22]) was “Toxic” and the MIC (Staphylococcus aureus [2]) was 0.35 µg/mL (≈ 0.937 µM). The Time (Staphylococcus aureus [23]) was 24 h, the MIC (Staphylococcus aureus [9]) was 4 µg/mL (≈ 10.7 µM) and the MBC (Staphylococcus aureus [10]) was 4 µg/mL (≈ 10.7 µM). For the same compound, the MIC (Staphylococcus aureus [3]) was 1 µg/mL (≈ 2.68 µM), the MIC (Staphylococcus aureus [11]) was 4 µg/mL (≈ 10.7 µM) and the MBC (Staphylococcus aureus [12]) was 4 µg/mL (≈ 10.7 µM). For the same compound, the MIC (Staphylococcus aureus [13]) was 4 µg/mL (≈ 10.7 µM), the MBC (Staphylococcus aureus [14]) was 8 µg/mL (≈ 21.4 µM) and the MBC (Staphylococcus aureus [15]) was 2 µg/mL (≈ 5.35 µM). The MIC (Staphylococcus aureus [16]) was 2 µg/mL (≈ 5.35 µM).
For C/C=C/COc1ccc(-c2nc(C)c(/C(C)=N/NC(=N)N)s2)cc1, the MIC (Staphylococcus aureus [4]) was 32 µg/mL (≈ 93.2 µM), the MBC (Staphylococcus aureus [5]) was 32 µg/mL (≈ 93.2 µM) and the MBC (Staphylococcus aureus [1]) was > 64 µg/mL. The MIC (Staphylococcus aureus [7]) was 32 µg/mL (≈ 93.2 µM), the MBC (Staphylococcus aureus [8]) was > 32 µg/mL and the MIC (Staphylococcus aureus [2]) was 15.6 µg/mL (≈ 45.5 µM). The MIC (Staphylococcus aureus [9]) was 32 µg/mL (≈ 93.2 µM), the MBC (Staphylococcus aureus [10]) was 32 µg/mL (≈ 93.2 µM) and the MIC (Staphylococcus aureus [3]) was 16 µg/mL (≈ 46.6 µM). The MIC (Staphylococcus aureus [11]) was 32 µg/mL (≈ 93.2 µM), the MBC (Staphylococcus aureus [12]) was 32 µg/mL (≈ 93.2 µM) and the MIC (Staphylococcus aureus [13]) was 32 µg/mL (≈ 93.2 µM). For the same compound, the MBC (Staphylococcus aureus [14]) was > 32 µg/mL, the MBC (Staphylococcus aureus [15]) was 128 µg/mL (≈ 373 µM) and the MIC (Staphylococcus aureus [16]) was 16 µg/mL (≈ 46.6 µM).
Work on CC(=O)NC[C@H]1CN(c2ccc(N3CCOCC3)c(F)c2)C(=O)O1 [LINEZOLID] yielded an MBC (Staphylococcus aureus [5]) of 16 µg/mL (≈ 47.4 µM), an MBC (Staphylococcus aureus [1]) of 32 µg/mL (≈ 94.9 µM) and an MBC (Staphylococcus aureus [8]) of 32 µg/mL (≈ 94.9 µM). It also gave an MBC (Staphylococcus aureus [10]) of 8 µg/mL (≈ 23.7 µM), an MBC (Staphylococcus aureus [12]) of 32 µg/mL (≈ 94.9 µM) and an MBC (Staphylococcus aureus [14]) of 16 µg/mL (≈ 47.4 µM). It also gave an MBC (Staphylococcus aureus [15]) of 16 µg/mL (≈ 47.4 µM).
CCCCCCCCCOc1ccc(-c2nc(C)c(/C(C)=N/NC(=N)N)s2)cc1 showed an MIC (Staphylococcus aureus [4]) of 16 µg/mL (≈ 38.5 µM), an MBC (Staphylococcus aureus [5]) of 16 µg/mL (≈ 38.5 µM) and an MBC (Staphylococcus aureus [1]) of 8 µg/mL (≈ 19.2 µM). For the same compound, the MIC (Staphylococcus aureus [7]) was 16 µg/mL (≈ 38.5 µM), the MBC (Staphylococcus aureus [8]) was 16 µg/mL (≈ 38.5 µM) and the MIC (Staphylococcus aureus [2]) was > 30 µg/mL. For the same compound, the MIC (Staphylococcus aureus [9]) was 16 µg/mL (≈ 38.5 µM), the MBC (Staphylococcus aureus [10]) was 16 µg/mL (≈ 38.5 µM) and the MIC (Staphylococcus aureus [3]) was 4 µg/mL (≈ 9.62 µM). The MIC (Staphylococcus aureus [11]) was 16 µg/mL (≈ 38.5 µM), the MBC (Staphylococcus aureus [12]) was 16 µg/mL (≈ 38.5 µM) and the MIC (Staphylococcus aureus [13]) was 16 µg/mL (≈ 38.5 µM). It also gave an MBC (Staphylococcus aureus [14]) of 16 µg/mL (≈ 38.5 µM) and an MBC (Staphylococcus aureus [15]) of 8 µg/mL (≈ 19.2 µM).
